In publication PMC8879803, “Identification of a Common Pharmacophore for Binding to MMP2 and RGD Integrin: Towards a Multitarget Approach to Inhibit Cancer Angiogenesis and Metastasis” (Molecules, 2022):

How the values were obtained:
M21 human melanoma cells = test: Inhibition of integrin-mediated M21 cell adhesion to vitronectin; type: cell-based; conditions: 2 mM MnCl2, relative to vehicle (PBS); for inhibition at 0.3 µM / inhibition at 3 µM / inhibition at 30 µM: Homo sapiens, M21
Description: All the compounds but 17 were also tested for their integrin binding affinity towards M21 human melanoma cells that expresses high levels of αvβ3 heterodimer and using cilengitide as a control. Tests were performed in the presence of 2 mM MnCl2 to switch integrins of tumour cells into an activated form, and at final concentration of the compounds ranging from 30 μM to 0.3 μM (Table 3). […] We were pleased to find that compound 19 maintained a good inhibition potency at 0.3 μM as the lowest concentration used, thus confirming the capacity of this compound to inhibit the binding of M21 melanoma cells to vitronectin as an RGD-containing substrate.
The expression levels of αVβ3 integrin receptors on M21 melanoma cell lines were reported previously. Next, 96 wells plates were coated overnight, at 4 °C, with vitronectin (5 μg/mL in PBS) (V8379 Sigma). Plates were, then washed with phosphate buffered saline (PBS) solution and incubated at 37 °C for 1 h with PBS containing 1% bovine serum albumin (BSA). M21 cells were centrifugated (RT, at 700× g) in PBS, to remove serum. Cells were counted and suspended in serum-free medium at 5.0 × 10^5 cells/mL. Melanoma cell suspensions were pre-incubated with different amounts of the compounds. The final concentration ranged from 30 uM to 0.3 uM, using cilengitide as a control. The incubation was performed at 37 °C for 30 min to allow the ligand-receptor equilibrium to be reached. Next, cells were plated on VN substrata (5–6 × 10^4 cells/well) and incubated at 37 °C for 1 h. The assays were conducted in the presence of 2 mmol/L MnCl2 [26]. At the end of the incubation, plates were washed with PBS to remove the non-adherent cells, and 200 μL of 0.5% crystal violet solution in 20% methanol were added. After 2 h of static incubation at 4 °C, plates were examined at 540 nm in a counter ELX800 (Bio TEK Instruments, Winooski, VT, USA). Experiments were done in triplicate and repeated at least three times. The values are expressed as % inhibition of cell adhesion relative to cells exposed to vehicle alone (PBS).

[1] = target: T1, purified human integrin proteins αvβ3 (Homo sapiens, UniProt P05106+P06756); test: Solid-phase integrin binding assay (competition with biotinylated vitronectin); conditions: for inhibition at 0.1 µM / inhibition at 1 µM / inhibition at 10 µM: read-out: Inhibition % of biotinylated vitronectin specific binding to αvβ3
T1 construct: purchased Sino Biological Europe GmbH, Eschborn, Germany
Description: As regarding to the binding affinity towards αvβ3, the library was screened using an in vitro solid-phase assays were performed at 10, 1.0 and 0.1 μM concentration of the test compounds for their ability to compete with biotinylated vitronectin for binding to pure αvβ3 integrin isolated from human placenta, and % binding activity is reported in Table 2.
Purified αvβ3 receptors (Sino Biological Europe GmbH, Eschborn, Germany) were diluted to 0.5 μg/mL in coating buffer containing Tris-HCl (20 mmol/L; pH 7.4), NaCl (150 mmol/L), MnCl2 (1 mmol/L), CaCl2 (2 mmol/L) and MgCl2 (1 mmol/L). An aliquot of diluted receptors (100 μL per well) was added to 96-well microtiter plates (MW 96F Medisorp Straight Nunc, Thermo Fischer Scientific, Waltham, MA, USA) and incubated, overnight, at 4 °C. The plates were then incubated with blocking solution (coating buffer plus 5% bovine serum albumin) for an additional 2 h at room temperature to block nonspecific binding followed by 3 h incubation at room temperature with various concentrations of test compounds in the presence of vitronectine (1 μg/mL, Sigma Aldrich, Merck KGaA, Darmstadt, Germany) biotinylated by using EZ-Link Sulfo-NHS-Biotinylation kit (Thermo Fisher, Waltham, MA, USA). After washing, the plates were incubated for 1 h at room temperature with streptavidin–biotinylated peroxidase complex (GE Healthcare, Chicago, IL, USA), followed by 30 min incubation with substrate reagent solution (100 μL; R&D Systems) before stopping the reaction by addition of H2SO4 (2 N, 50 μL). Absorbance at 415 nm was read with a BMG Labtech Fluostar Optima microplate reader. All the experiments were performed in triplicates and data collected were analyzed using the GraphPad 5.0 Software Package.

MMP9 = MMP9 (Homo sapiens, UniProt P14780); test: Fluorometric enzyme inhibition assay with fluorogenic substrate Mca-Lys-Pro-Leu-Gly-Leu-Dpa-Ala-Arg-NH2 (MMP9); type: biochemical; conditions: for inhibition at 10 µM: 10 μM compound; for inhibition at 10 µM / inhibition at 50 µM / IC50: enzyme 1 nM; for inhibition at 10 µM / inhibition at 50 µM: mean of three assays; for inhibition at 50 µM: 50 μM compound; for IC50: dose-response
Description: (§1) For all the compounds showing >50% inhibition activity the IC50 values were obtained by dose-response measurements using an inhibitor range of concentrations (0.01 nM–20 μM) and enzyme concentration equal to 1 nM.
(§2) The inhibition potency of hydroxamic acid derivatives against MMP2 and MMP9 was assayed through a fluorometric assay using the fluorogenic substrate Mca-Lys-Pro-Leu-Gly-Leu-Dpa-Ala-Arg-NH2 (Enzo life science). All the measurements were performed in 96-well plates with a Fluostar Optima microplate reader (BMG Labtech, Ortenberg, Germany). Excitation and emission wavelengths were 320 and 420 nm, respectively. All incubations were performed at 28 °C in 50 mM TrisHCl, 150 mM NaCl, 10 mM CaCl2, 0.05% Brij 35, 1% DMSO at pH 7.5. The inhibitors were pre-incubated with enzymes (1 nM) for 5 min at room temperature before the reaction was started by the addition of the fluorogenic substrate (3 µM). The […] of fluorescence was monitored over 30 min (λex = 320 nm, λem = 420 nm) at 28 °C. The percentages of inhibition for the test compounds were determined through the equation (1 − Vs/Vo) × 100, where vs. is the initial velocity in the presence of the inhibitor and V0 is the initial velocity of the uninhibited reaction. The IC50 values were obtained by dose-response measurements using inhibitor range of concentrations 0.00001–20 μM and enzyme concentration equal to 1 nM. A detergent-based assay was used to determine the presence of promiscuous inhibitors. All the experiments were performed in triplicates and data collected were analyzed using Graphpad 5.0 Software Package (GraphPad Prism Inc., San Diego, CA, USA).

MMP2 = target: T2, MMP2 (Homo sapiens, UniProt P08253); test: Fluorometric enzyme inhibition assay with fluorogenic substrate Mca-Lys-Pro-Leu-Gly-Leu-Dpa-Ala-Arg-NH2 (MMP2); type: biochemical; conditions: for inhibition at 10 µM: 10 μM compound; for inhibition at 10 µM / inhibition at 50 µM / IC50: enzyme 1 nM; for inhibition at 10 µM / inhibition at 50 µM: mean of three assays; for inhibition at 50 µM: 50 μM compound; for IC50: dose-response
T2 sequence (P08253 110-660): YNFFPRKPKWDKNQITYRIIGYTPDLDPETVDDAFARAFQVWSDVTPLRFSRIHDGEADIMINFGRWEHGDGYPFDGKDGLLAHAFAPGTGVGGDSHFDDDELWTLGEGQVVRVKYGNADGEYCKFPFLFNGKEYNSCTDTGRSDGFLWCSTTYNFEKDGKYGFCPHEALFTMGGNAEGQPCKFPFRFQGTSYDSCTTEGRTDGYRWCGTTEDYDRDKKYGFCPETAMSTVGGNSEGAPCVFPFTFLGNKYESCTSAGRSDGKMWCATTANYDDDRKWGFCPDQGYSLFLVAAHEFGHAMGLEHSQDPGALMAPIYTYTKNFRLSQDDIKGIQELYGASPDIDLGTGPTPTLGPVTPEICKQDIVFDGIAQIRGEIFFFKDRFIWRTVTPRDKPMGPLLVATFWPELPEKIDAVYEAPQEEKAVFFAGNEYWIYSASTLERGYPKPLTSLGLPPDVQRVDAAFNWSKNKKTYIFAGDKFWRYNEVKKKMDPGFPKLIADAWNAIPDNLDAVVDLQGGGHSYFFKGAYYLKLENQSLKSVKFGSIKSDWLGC
Description: as §1, §2

Molecule | inhibition at 0.3 µM (M21 human melanoma cells; at 0.3 μM) | inhibition at 3 µM (M21 human melanoma cells; at 3 μM) | inhibition at 30 µM (M21 human melanoma cells; at 30 μM) | inhibition at 0.1 µM [1] | inhibition at 1 µM [1] | inhibition at 10 µM [1] | inhibition at 10 µM (MMP9) | inhibition at 50 µM (MMP9) | inhibition at 10 µM (MMP2) | inhibition at 50 µM (MMP2) | IC50 towards MMP2, in words (MMP2) | IC50 (MMP2) | IC50 (MMP9) | IC50 ([1]; dose-response assay, read-out: IC50 (αvβ3), inhibition of biotinylated vitronectin binding) | IC50 towards MMP9, in words (MMP9; statement in text (gelatinases)) | Inhibition % of M21 cell adhesion to vitronectin (M21 human melanoma cells; at 0.3 μM) | Inhibition % of M21 cell adhesion to vitronectin (M21 human melanoma cells; at 3 μM) | Inhibition % of M21 cell adhesion to vitronectin (M21 human melanoma cells; at 30 μM)
N=C(N)NCCCOc1ccc(C[C@H](NS(=O)(=O)c2ccccc2)C(=O)O)cc1 [Compound 9, (S)-3-(4-(3-Guanidinopropoxy)phenyl)-2-(phenylsulfonamido)propanoic Acid] | 41.4% | 62.5% | 75.9% | 0% | 18% | 54% | 0% | 0% | 0% | 21% | – | – | – | – | – | – | – | –
N=C(N)NCCCOc1ccc(C[C@H](NS(=O)(=O)c2ccc(-c3ccccc3)cc2)C(=O)O)cc1 [Compound 10, (S)-2-([1,1′-Biphenyl]-4-ylsulfonamido)-3-(4-(3-guanidinopropoxy)phenyl)propanoic Acid] | 43.8% | 76.7% | 76.9% | 8% | 1% | 5% | 0% | 0% | 16% | 41% | – | – | – | – | – | – | – | –
NCCCOc1ccc(C[C@H](NS(=O)(=O)c2ccc(-c3ccccc3)cc2)C(=O)O)cc1 [Compound 16, (S)-2-([1,1′-Biphenyl]-4-ylsulfonamido)-3-(4-(3-aminopropoxy)phenyl)propanoic Acid] | 28% | 28.9% | 68.5% | 26% | 26% | 19% | 0% | 0% | 60% | 79% | micromolar range | 1200 nM | – | – | – | – | – | –
NCCCOc1ccc(C[C@H](NS(=O)(=O)c2ccc([N+](=O)[O-])cc2)C(=O)O)cc1 [Compound 17, (S)-3-(4-(3-Aminopropoxy)phenyl)-2-(4-nitrophenylsulfonamido)propanoic Acid] | – | – | – | 0% | 0% | 0% | 0% | 0% | 0% | 0% | – | – | – | – | – | – | – | –
N=C(N)NCCCOc1ccc(C[C@H](NS(=O)(=O)c2ccccc2)C(=O)NO)cc1 [Compound 18, (S)-3-(4-(3-Guanidinopropoxy)phenyl)-N-hydroxy-2-(phenylsulfonamido)propanamide] | 44.9% | 64.3% | 74.1% | 0% | 0% | 27% | 42% | 63% | 52% | 75% | – | 760 nM | 1300 nM | – | – | – | – | –
NCCCOc1ccc(C[C@H](NS(=O)(=O)c2ccc(-c3ccccc3)cc2)C(=O)NO)cc1 [Compound 19, (S)-2-([1,1′-Biphenyl]-4-ylsulfonamido)-3-(4-(3-aminopropoxy)phenyl)-N-hydroxypropanamide] | 57.8% | 35.8% | 65.7% | 21% | 41% | 88% | 100% | 100% | 100% | 100% | nanomolar range | 55 nM | 38 nM | 370 nM | nanomolar range | – | – | –
O=C(NO)[C@H](Cc1ccc(O)cc1)NS(=O)(=O)c1ccc(-c2ccccc2)cc1 [Compound 21, (S)-2-([1,1′-Biphenyl]-4-ylsulfonamido)-N-hydroxy-3-(4-hydroxyphenyl)propanamide] | 29.7% | 28.8% | 17.4% | 20% | 12% | 2% | 63% | 73% | 97% | 100% | – | 37 nM | 361 nM | – | – | – | – | –
c[RGDf(Me)V] [Cilengitide, reference compound] | – | – | – | – | – | – | – | – | – | – | – | – | – | – | – | 80% | 76% | 62%
